This is an account of results in patent US20240294533A1, “2-(HET)ARYL-SUBSTITUTED CONDENSED HETEROCYCLE DERIVATIVES AS PEST CONTROL AGENTS” (Bayer Aktiengesellschaft, priority 2021, published 2024).

Common to all, as to type: in vivo
For test [1], the system named is Diabrotica balteata. Briefly: Diabrotica balteata spray test. To be noted: Diabrotica balteata, 168 h; 100 g/ha (=32 μg/cavity), wheat grains, after 7 days; read-out: efficacy. From the text:
Diabrotica balteata—Spray Test Solvent: 78 parts by weight of acetone • • 1.5 parts by weight of dimethylformamide Emulsifier: alkylaryl polyglycol ether An appropriate active ingredient formulation is produced by dissolving 1 part by weight of active ingredient with the stated parts by weight of solvent and making the solution up to the desired concentration with water containing an emulsifier concentration of 1000 ppm. Further test concentrations are produced by diluting the formulation with emulsifier-containing water. Pre-swollen wheat grains (Triticum aestivum) are incubated in a multiwell plate filled with agar and a little water for one day (5 seed grains per cavity). The germinated wheat grains are sprayed with an active ingredient formulation of the desired concentration. Subsequently, each cavity is infected with 10-20 beetle larvae of Diabrotica balteata. After 7 days, efficacy in % is determined. 100% means that all wheat plants have grown as in the untreated, uninfected control; 0% means that no wheat plant has grown.

Test [2] has as its system Meloidogyne incognita. Briefly: Meloidogyne incognita test. Conditions: Meloidogyne incognita, 336 h, lettuce, gall formation after 14 days, read-out: nematicidal efficacy. From the text: Meloidogyne incognita Test Solvent: 125.0 parts by weight of acetone An appropriate active ingredient formulation is produced by mixing 1 part by weight of active ingredient with the stated amount of solvent and diluting the concentrate to the desired concentration with water. Vessels are filled with sand, active ingredient solution, an egg/larvae suspension of the southern root-knot nematode (Meloidogyne incognita) and lettuce seeds. The lettuce seeds germinate and the plants develop. The galls develop on the roots. After 14 days, the nematicidal efficacy in % is determined by the formation of galls. 100% means that no galls were found; 0% means that the number of galls on the treated plants corresponds to the untreated control.

Test [3] concerns Spodoptera frugiperda. Briefly: Spodoptera frugiperda spray test (maize leaf discs). To be noted: Spodoptera frugiperda, foliar, 168 h, after 7 days, read-out: efficacy. The source says:
Spodoptera Frusiperda—Spray Test Solvent: 78.0 parts by weight of acetone • • 1.5 parts by weight of dimethylformamide Emulsifier: alkylaryl polyglycol ether An appropriate active ingredient formulation is produced by dissolving 1 part by weight of active ingredient with the stated parts by weight of solvent and making the solution up to the desired concentration with water containing an emulsifier concentration of 1000 ppm. Further test concentrations are produced by diluting the formulation with emulsifier-containing water. Leaf discs of maize (Zea mays) are sprayed with an active ingredient formulation of the desired concentration and, after drying, populated with caterpillars of the fall armyworm (Spodoptera frugiperda). After 7 days, efficacy in % is determined. 100% means that all the caterpillars have been killed; 0% means that no caterpillar has been killed.

In test [4] the test system is Plutella xylostella. Briefly: Plutella xylostella spray test (PLUTMA), comparative. Conditions: 168 h, cabbage leaves, after 7 days. From the text: (§1) Plutella xylostella Spray Test (PLUTMA) Solvent: 14 parts by weight of dimethylformamide Emulsifier: alkylaryl polyglycol ether An appropriate active ingredient formulation is produced by dissolving 1 part by weight of active ingredient with the stated parts by weight of solvent and making the solution up to the desired concentration with water containing an emulsifier concentration of 1000 ppm. Further test concentrations are produced by diluting the formulation with emulsifier-containing water. If the addition of ammonium salts or/and penetrants is required, these are each added in a concentration of 1000 ppm to the formulation solution. Cabbage leaves (Brassica oleracea) are sprayed with an active ingredient formulation of the desired concentration and infected with larvae of the diamondback moth (Plutella xylostella). After 7 days, the kill in % is determined. 100% means that all caterpillars have been killed; 0% means that none of the caterpillars have been killed.

In test [5] the test system is Heliothis armigera. Briefly: Heliothis armigera spray test (HELIAR), comparative. Conditions: Helicoverpa armigera, 168 h, cotton plants, after 7 days.
Text: as §1, with “Heliothis Armigera” for “Plutella xylostella”, “([…])” for “(PLUTMA)”, “Cotton plants (Gossypium hirsutum)” for “Cabbage leaves (Brassica oleracea)”, “and, after drying, populated” for “and infected”, “caterpillars” for “larvae”, “cotton bollworm (Heliothis armigera).” for “diamondback moth (Plutella xylostella).”

The subject of test [6] is Spodoptera frugiperda. Briefly: Spodoptera frugiperda spray test (SPODFR), comparative. Conditions: 168 h, cotton leaves, after 7 days; for Emax at 0.8 ppm: read-out: % Efficacy. From the text: Spodoptera frugtiperda—Spray Test (SPODFR) Solvent: 14 parts by weight of dimethylformamide Emulsifier: alkylaryl polyglycol ether An appropriate active ingredient formulation is produced by dissolving 1 part by weight of active ingredient with the stated parts by weight of solvent and making the solution up to the desired concentration with water containing an emulsifier concentration of 1000 ppm. Further test concentrations are produced by diluting the formulation with emulsifier-containing water. If the addition of ammonium salts or/and penetrants is required, these are each added in a concentration of 1000 ppm to the formulation solution. Cotton leaves (Gossypium hirsutum) are sprayed with an active ingredient formulation of the desired concentration and populated with caterpillars of the armyworm (Spodoptera frugiperda). After 7 days, the kill in % is determined. 100% means that all caterpillars have been killed; 0% means that none of the caterpillars have been killed.

The test system of test [7] is Ctenocephalides felis. Briefly: Ctenocephalides felis oral test. To be noted: 100 ppm, oral via cattle blood, after 2 days. On the procedure:
Ctenocephalides felis—Oral Test Solvent: dimethyl sulfoxide An appropriate active ingredient formulation is produced by mixing 10 mg of active ingredient with 0.5 ml of dimethyl sulfoxide. Dilution with citrated cattle blood gives the desired concentration. About 20 unfed adult cat fleas (Ctenocephalides felis) are placed into a chamber which is closed at the top and bottom with gauze. Onto the chamber is placed a metal cylinder with its bottom end closed with parafilm. The cylinder contains the blood/active ingredient formulation, which can be imbibed by the fleas through the parafilm membrane. The cylinder is heated to 37° C., while the flea chambers are kept at room temperature. After 2 days, the kill rate in % is determined relative to the untreated control. 100% means that all of the fleas have been killed; 0% means that none of the fleas have been killed.

Test [8] relates to Lucilia cuprina. Briefly: Lucilia cuprina test. Conditions: 100 ppm, L1 larvae, after 2 days. The protocol:
Lucilia cuprina Test Solvent: dimethyl sulfoxide An appropriate active ingredient formulation is produced by mixing 10 mg of active ingredient with 0.5 ml of dimethyl sulfoxide and diluting the concentrate with water to the desired concentration. About 20 L1 larvae of the Australian sheep blowfly (Lucilia cuprina) are transferred into a test vessel containing minced horsemeat and the active ingredient formulation of the desired concentration. After 2 days, the kill rate in % is determined relative to the untreated control. 100% means that all the larvae have been killed; 0% means that no larvae have been killed.

Test [9] concerns Musca domestica. Briefly: Musca domestica test. Conditions: 100 ppm, adult houseflies, after 2 days. On the procedure: Musca domestica Test Solvent: dimethyl sulfoxide An appropriate active ingredient formulation is produced by mixing 10 mg of active ingredient with 0.5 ml of dimethyl sulfoxide and diluting the concentrate with water to the desired concentration. Vessels containing a sponge treated with sugar solution and the desired concentration of active compound formulation are populated with 10 adult houseflies (Musca domestica). After 2 days, the kill rate in % is determined relative to the untreated control. 100% means that all of the flies have been killed; 0% means that none of the flies have been killed.

Test [10] deals with Myzus persicae. Briefly: Myzus persicae oral test. Conditions: 4 ppm, after 5 days. On the procedure:
Myzus persicae—Oral Test Solvent: 100 parts by weight of acetone An appropriate active ingredient formulation is produced by dissolving 1 part by weight of active ingredient with the specified parts by weight of solvent and making the solution up to the desired concentration with water. 50 μl of the active ingredient formulation is transferred into microtitre plates and made up to a final volume of 200 μl with 150 μl of IPL41 insect medium (33%+15% sugar). Subsequently, the plates are sealed with parafilm, which a mixed population of green peach aphids (Myzus persicae) within a second microtitre plate is able to puncture and imbibe the solution. After 5 days, efficacy in % is determined. 100% means that all the aphids have been killed; 0% means that no aphids have been killed.

The test system of test [11] is Phaedon cochleariae. Briefly: Phaedon cochleariae spray test. To be noted: 100 g/ha, Chinese cabbage leaf discs, after 7 days. The source says:
Phaedon cochleariae—Spray Test
Solvent: 78.0 parts by weight of acetone • • 1.5 parts by weight of dimethylformamide
Emulsifier: alkylaryl polyglycol ether
An appropriate active ingredient formulation is produced by dissolving 1 part by weight of active ingredient with the stated parts by weight of solvent and making the solution up to the desired concentration with water containing an emulsifier concentration of 1000 ppm. Further test concentrations are produced by diluting the formulation with emulsifier-containing water.
Discs of Chinese cabbage leaves (Brassica pekinensis) are sprayed with an active ingredient formulation of the desired concentration and, after drying, populated with larvae of the mustard beetle (Phaedon cochleariae).
After 7 days, efficacy in % is determined. 100% means that all the beetle larvae have been killed; 0% means that no beetle larvae have been killed.

The subject of test [12] is Diabrotica balteata. Briefly: Diabrotica balteata drench test. To be noted: 20 ppm, soil drench, maize, after 8 days. From the text:
Diabrotica balteata—Drench Test Solvent: 7 parts by weight of dimethylformamide Emulsifier: 2 parts by weight of alkylaryl polyglycol ether An appropriate active ingredient formulation is produced by mixing 1 part by weight of active ingredient with the specified amounts of solvent and emulsifier, and diluting the concentrate to the desired concentration with water, it being necessary to take account of the volume of soil which is drenched. It should be ensured that a concentration of 40 ppm of emulsifier in the soil is not exceeded. Further test concentrations are produced by diluting with water. 5 […] (Zea mays) in each case are sown into pots filled with earth, and the next day the pots are watered with the active ingredient preparation of the desired concentration. After one day, about 25 L2 larvae of the banded cucumber beetle (Diabrotica balteata) are added. After 8 days, efficacy in % is determined. 100% means that all 5 plants have germinated and grown; 0% means that none of the plants has emerged.

Test [13] relates to Nezara viridula. Briefly: Nezara viridula spray test (infected barley plants sprayed). To be noted: 100 g ai/ha, after 4 days. From the text:
Nezara viridula—Spray Test Solvent: 52.5 parts by weight of acetone • 7 parts by weight of dimethylformamide Emulsifier: alkylaryl polyglycol ether An appropriate active ingredient formulation is produced by dissolving 1 part by weight of active ingredient with the stated parts by weight of solvent and making the solution up to the desired concentration with water containing an emulsifier concentration of 1000 ppm. Further test concentrations are produced by diluting the formulation with emulsifier-containing water. If the addition of ammonium salts or/and penetrants is required, these are each added in a concentration of 1000 ppm to the formulation solution. Barley plants (Hordeum vulgare) infected with larvae of the Southern green shield bug (Nezara viridula) are sprayed with an active ingredient formulation of the desired concentration. After 4 days, efficacy in % is determined. 100% means that all of the shield bugs have been killed; 0% means that none of the shield bugs have been killed.

Take `CCS(=O)(=O)c1ccc(-n2ncn(-c3ccc(Br)cc3)c2=O)nc1-c1nc2cc(C(F)(F)C(F)(F)F)nnc2n1C` [Example I-14]: the pest or weed control at 100 g/ha in [1] and in [3] was 100% in each case. The pest or weed control at 20 ppm in test [2] came out at 100%. In [4], the efficacy at 0.8 ppm was 100%. The same molecule registered a percent efficacy (kill) at fixed dose at 0.8 ppm in test [5] (0.8 ppm) of 100%. This molecule also showed a percent efficacy (kill) at fixed dose at 4 ppm in test [5] (4 ppm) of 100%. Further, the percent efficacy at tested dose at 0.8 ppm in test [6] worked out at 100%.

`CCS(=O)(=O)c1ccc(-n2ncn(-c3ccc(Cl)cc3)c2=O)nc1-c1nc2cc(C(F)(F)C(F)(F)F)nnc2n1C` [Example I-22]: the “efficacy (kill rate)” value in [7], in test [8] and in test [9] was 100% throughout. Also, the efficacy in test [10] is on record as 100%; in test [11], 100%; in test [12], 100%; in test [13] it was 90%. The pest or weed control at 100 g/ha in test [3] came to 100%.

Take `CCS(=O)(=O)c1ccc(-n2ncn(-c3ccc(Br)cc3)c2=O)nc1-c1nc2cc(C(F)(F)F)ccc2n1C` [I-16 known from WO 2017/055185, reference compound]: the efficacy at 0.8 ppm in [4] came out at 85%. For the same molecule, the Emax at 0.8 ppm came out at 20% in [5] (0.8 ppm, read-out: % Efficacy) and 10% in test [6]. Further, the Emax at 4 ppm in test [5] (4 ppm, read-out: % Efficacy) stood at 60%.

Take `Cn1c(-c2nc(-n3ncn(-c4ccc(Cl)cc4)c3=O)ccc2CS(C)(=O)=O)nc2cc(C(F)(F)F)cnc21` [I-33 known from WO 2017/055185, reference compound]: the efficacy at 0.16 ppm in [4] (0.16 ppm) worked out at 15%. Besides, the Emax at 0.8 ppm in [6] is 0%.
